For data set [1], the target named is T1, Peroxisome proliferator-activated receptor gamma (Homo sapiens) (UniProt P37231).
T1 sequence (whole entry): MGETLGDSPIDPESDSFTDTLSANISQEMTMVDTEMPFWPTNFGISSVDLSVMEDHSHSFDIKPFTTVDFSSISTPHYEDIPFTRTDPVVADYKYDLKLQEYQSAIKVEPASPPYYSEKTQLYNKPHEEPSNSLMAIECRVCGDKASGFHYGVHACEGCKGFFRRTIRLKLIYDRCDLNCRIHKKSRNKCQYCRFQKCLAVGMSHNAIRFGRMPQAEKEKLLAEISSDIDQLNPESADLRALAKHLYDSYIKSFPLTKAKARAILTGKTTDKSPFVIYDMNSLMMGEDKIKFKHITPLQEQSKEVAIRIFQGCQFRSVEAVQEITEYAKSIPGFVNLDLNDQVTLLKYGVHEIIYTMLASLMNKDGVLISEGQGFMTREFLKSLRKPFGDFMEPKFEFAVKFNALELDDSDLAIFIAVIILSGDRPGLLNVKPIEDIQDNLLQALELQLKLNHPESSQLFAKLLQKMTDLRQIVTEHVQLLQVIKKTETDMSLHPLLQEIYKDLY
Nature of the data set: Transactivation of Gal4-fused human PPARgamma expressed in CHO cells co expressing pG5-Luc reporter at 10 uM. Format: cell-based. The conditions noted are these: filed as agonist.

The target in data set [2] is T2, Peroxisome proliferator-activated receptor delta (Mus musculus) (UniProt P35396).
T2 sequence (whole entry): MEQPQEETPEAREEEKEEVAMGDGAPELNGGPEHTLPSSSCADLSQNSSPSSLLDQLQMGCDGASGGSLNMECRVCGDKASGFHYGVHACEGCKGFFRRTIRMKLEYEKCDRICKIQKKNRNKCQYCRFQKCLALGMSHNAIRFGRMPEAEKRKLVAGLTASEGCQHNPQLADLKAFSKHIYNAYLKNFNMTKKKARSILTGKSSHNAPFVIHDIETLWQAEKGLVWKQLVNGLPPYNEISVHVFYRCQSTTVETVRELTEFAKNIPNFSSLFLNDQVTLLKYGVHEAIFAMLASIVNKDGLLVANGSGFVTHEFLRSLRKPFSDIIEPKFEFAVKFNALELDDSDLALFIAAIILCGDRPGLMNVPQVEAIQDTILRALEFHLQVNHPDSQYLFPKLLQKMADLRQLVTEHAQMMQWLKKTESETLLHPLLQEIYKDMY
Nature of the data set: Transactivation of Gal4-fused mouse PPARdelta expressed in CHO cells co expressing pG5-Luc reporter at 1 uM. Format: cell-based. The conditions noted are these: filed as agonist.

Data set [3] has as its target T3, Peroxisome proliferator-activated receptor alpha (Homo sapiens) (UniProt Q07869).
T3 sequence (whole entry): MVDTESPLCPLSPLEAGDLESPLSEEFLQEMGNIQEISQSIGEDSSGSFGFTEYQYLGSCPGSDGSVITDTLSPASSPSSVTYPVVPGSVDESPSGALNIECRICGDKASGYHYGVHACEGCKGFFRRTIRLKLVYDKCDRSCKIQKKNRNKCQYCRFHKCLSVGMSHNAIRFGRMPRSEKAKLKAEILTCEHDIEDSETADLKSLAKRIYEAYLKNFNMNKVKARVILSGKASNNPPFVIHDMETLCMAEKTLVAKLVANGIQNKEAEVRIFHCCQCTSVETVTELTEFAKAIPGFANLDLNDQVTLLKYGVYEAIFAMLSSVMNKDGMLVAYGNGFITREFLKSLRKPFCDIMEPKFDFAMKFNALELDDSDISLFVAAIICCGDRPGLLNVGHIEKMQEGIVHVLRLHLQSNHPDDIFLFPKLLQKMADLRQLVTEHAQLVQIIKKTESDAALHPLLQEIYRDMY
Nature of the data set: Transactivation of Gal4-fused human PPARalpha expressed in CHO cells co expressing pG5-Luc reporter at 1 uM. The following applies: filed as agonist. Format: cell-based.

Data set [4] has as its target T3, Peroxisome proliferator-activated receptor alpha (Homo sapiens). The data set can be described thus: Transactivation of Gal4-fused human PPARalpha expressed in CHO cells co expressing pG5-Luc reporter at 10 uM. Format: cell-based. The conditions noted are these: filed as agonist.
In data set [5] the target is T4, Peroxisome proliferator-activated receptor delta (Homo sapiens) (UniProt Q03181).
T4 sequence (whole entry): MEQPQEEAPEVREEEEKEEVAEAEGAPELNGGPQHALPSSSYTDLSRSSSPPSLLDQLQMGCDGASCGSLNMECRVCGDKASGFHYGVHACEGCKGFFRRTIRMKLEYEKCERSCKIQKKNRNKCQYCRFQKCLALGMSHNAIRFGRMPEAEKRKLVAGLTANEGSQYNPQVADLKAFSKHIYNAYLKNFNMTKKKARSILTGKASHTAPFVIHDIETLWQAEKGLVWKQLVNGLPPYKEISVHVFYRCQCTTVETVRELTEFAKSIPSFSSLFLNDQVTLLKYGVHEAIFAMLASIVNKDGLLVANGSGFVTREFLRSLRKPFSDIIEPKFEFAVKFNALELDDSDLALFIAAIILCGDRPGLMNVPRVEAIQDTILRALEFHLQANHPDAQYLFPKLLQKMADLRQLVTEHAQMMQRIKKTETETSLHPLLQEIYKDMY
The data set can be described thus: Transactivation of Gal4-fused human PPARdelta expressed in CHO cells co expressing pG5-Luc reporter at 10 uM. Format: cell-based. The conditions noted are these: filed as agonist.

Data set [6] concerns the target T5, Peroxisome proliferator-activated receptor gamma (Homo sapiens, UniProt P37231).
T5 sequence (P37231 whole entry): T1 sequence (whole entry)
Format: cell-based, CHO.

Data set [7] concerns the target T6, Peroxisome proliferator-activated receptor delta (Homo sapiens, UniProt Q03181).
T6 sequence (Q03181 whole entry): T4 sequence (whole entry)
The data set can be described thus: Transactivation of Gal4-fused human PPARdelta expressed in CHO cells co expressing pG5-Luc reporter. Format: cell-based.

The target in data set [8] is T7, Peroxisome proliferator-activated receptor delta (Mus musculus, UniProt P35396).
T7 sequence (P35396 whole entry): T2 sequence (whole entry)
The data set can be described thus: Transactivation of Gal4-fused mouse PPARdelta expressed in CHO cells co expressing pG5-Luc reporter. Format: cell-based.

Data set [9] concerns the target T8, Peroxisome proliferator-activated receptor alpha (Homo sapiens, UniProt Q07869).
T8 sequence (Q07869 whole entry): T3 sequence (whole entry)
Nature of the data set: Transactivation of Gal4-fused human PPARalpha expressed in CHO cells co expressing pG5-Luc reporter. Format: cell-based.

Data set [10] has as its system Mus musculus. Nature of the data set: Anti-diabetic activity in […] mouse assessed as glucose level at 30 mg/kg, po for 8 days (reference value: 737 +/- 52 mg/dL). Format: functional. The following applies: time 8 day.
The test system of data set [11] is Mus musculus. The data set can be described thus: Anti-obesity activity in […] mouse assessed as TG level at 30 mg/kg, po for 8 days (reference value: 162.8 +/- 21.4 mg/dL). Format: functional. The conditions noted are these: time 8 day.
Data set [12] relates to Mus musculus. Nature of the data set: Anti-obesity activity in […] mouse assessed as HDL cholesterol level at 30 mg/kg, po for 8 days (reference value: 103.5 +/- 3.2 %). Format: functional. The conditions noted are these: time 8 day.
For data set [13], the target named is PPAR delta/gamma (Homo sapiens) (UniProt P37231+Q03181). Nature of the data set: Selectivity index, ratio of EC50 for human PPAgamma to EC50 for human PPARdelta. Format: protein assay.
Data set [14] has as its target CYP2D6 (Homo sapiens, UniProt P10635). Nature of the data set: Inhibition of CYP2D6 (unknown origin) assessed as residual activity at 20 uM by enzyme assay relative to control. Format: ADME. The following applies: read-out: Activity.
Data set [15] in a line: Kinetic solubility of compound at pH 6.8 by HPLC analysis. Format: physicochemical. The following applies: buffer, read-out: Kinetic_solubility.
For data set [16], the target named is CYP3A4 (Homo sapiens, UniProt P08684). The data set can be described thus: Inhibition of CYP3A4 (unknown origin) assessed as residual activity at 20 uM by enzyme assay relative to control. Format: ADME. The following applies: read-out: Activity.
Data set [17] is described as follows: Total clearance in rat dosed as mixture. Format: ADME, organism-based. The following applies: in vivo.
Data set [18] in a line: Metabolic stability in rat liver microsomes assessed as parent compound remaining after 0.5 hrs relative to control. Format: ADME, Microsome. The conditions noted are these: read-out: Stability.
Data set [19] in a line: Half life in rat dosed as mixture. Format: ADME, organism-based. The conditions noted are these: in vivo.
For data set [20], the species on record is Homo sapiens. Nature of the data set: Selectivity index, ratio of EC50 for human PPARalpha to EC50 for human PPARdelta.
Data set [21] addresses T9, CYP1A2 (Homo sapiens, UniProt P05177).
T9 sequence (P05177 whole entry): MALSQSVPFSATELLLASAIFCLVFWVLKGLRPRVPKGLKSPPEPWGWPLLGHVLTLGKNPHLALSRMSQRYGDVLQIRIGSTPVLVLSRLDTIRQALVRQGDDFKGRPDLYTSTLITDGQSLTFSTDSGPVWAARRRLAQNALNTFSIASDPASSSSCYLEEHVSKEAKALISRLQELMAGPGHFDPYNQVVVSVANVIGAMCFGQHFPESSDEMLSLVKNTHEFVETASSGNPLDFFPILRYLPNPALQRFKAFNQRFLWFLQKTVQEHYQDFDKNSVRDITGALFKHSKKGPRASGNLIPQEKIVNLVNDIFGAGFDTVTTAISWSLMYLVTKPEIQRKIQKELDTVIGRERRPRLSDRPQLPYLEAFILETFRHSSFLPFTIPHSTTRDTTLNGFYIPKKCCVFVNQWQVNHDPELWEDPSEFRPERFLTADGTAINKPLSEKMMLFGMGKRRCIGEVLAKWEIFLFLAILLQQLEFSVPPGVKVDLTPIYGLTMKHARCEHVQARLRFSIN
The data set can be described thus: Inhibition of CYP1A2 (unknown origin) assessed as residual activity at 20 uM by enzyme assay relative to control. Format: ADME. The conditions noted are these: read-out: Activity.

Data set [22] addresses CYP2C9 (Homo sapiens, UniProt P11712). Nature of the data set: Inhibition of CYP2C9 (unknown origin) assessed as residual activity at 20 uM by enzyme assay relative to control. Format: ADME. The following applies: read-out: Activity.
Data set [23] can be described thus: Metabolic stability in human liver microsomes assessed as parent compound remaining after 0.5 hrs relative to control. Format: ADME, Microsome. The following applies: read-out: Stability.

The results in this text go back to ChEMBL document CHEMBL5131453, “Discovery and structure-based design of a new series of potent and selective PPARδ agonists utilizing a virtual screening method” (Bioorg Med Chem Lett, 2022).

≈ marks a conversion by molar mass, not a printed value. Where only a bound is given, the exact number is not on record here.

Chain of CYP2C9 (P11712 whole entry): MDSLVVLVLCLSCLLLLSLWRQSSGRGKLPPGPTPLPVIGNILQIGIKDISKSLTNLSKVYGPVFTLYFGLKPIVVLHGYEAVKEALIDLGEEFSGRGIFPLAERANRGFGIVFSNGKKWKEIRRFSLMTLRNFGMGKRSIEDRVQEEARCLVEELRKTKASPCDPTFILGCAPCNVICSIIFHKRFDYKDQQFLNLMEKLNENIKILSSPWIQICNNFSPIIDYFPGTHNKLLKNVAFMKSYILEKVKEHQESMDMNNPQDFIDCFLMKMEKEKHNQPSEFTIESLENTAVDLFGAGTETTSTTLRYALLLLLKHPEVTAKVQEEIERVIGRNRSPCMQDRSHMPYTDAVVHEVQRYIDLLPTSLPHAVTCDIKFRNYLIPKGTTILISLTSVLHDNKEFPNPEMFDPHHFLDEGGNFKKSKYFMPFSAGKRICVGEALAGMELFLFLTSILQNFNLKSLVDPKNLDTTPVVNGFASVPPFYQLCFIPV
Chain of CYP2D6 (P10635 whole entry): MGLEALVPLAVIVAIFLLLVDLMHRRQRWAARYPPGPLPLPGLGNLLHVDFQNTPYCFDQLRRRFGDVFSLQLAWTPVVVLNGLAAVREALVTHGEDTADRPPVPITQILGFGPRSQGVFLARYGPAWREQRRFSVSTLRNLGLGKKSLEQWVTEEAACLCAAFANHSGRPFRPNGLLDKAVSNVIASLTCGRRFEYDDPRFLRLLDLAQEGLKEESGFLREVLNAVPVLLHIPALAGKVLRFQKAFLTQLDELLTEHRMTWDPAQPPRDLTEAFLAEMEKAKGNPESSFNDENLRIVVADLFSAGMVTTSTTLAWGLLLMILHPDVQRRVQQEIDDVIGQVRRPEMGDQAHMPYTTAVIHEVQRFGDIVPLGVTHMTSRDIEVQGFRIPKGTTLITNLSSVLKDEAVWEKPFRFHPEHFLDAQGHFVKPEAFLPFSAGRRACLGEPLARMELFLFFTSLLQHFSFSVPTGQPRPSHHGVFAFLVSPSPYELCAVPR
Chain of CYP3A4 (P08684 whole entry): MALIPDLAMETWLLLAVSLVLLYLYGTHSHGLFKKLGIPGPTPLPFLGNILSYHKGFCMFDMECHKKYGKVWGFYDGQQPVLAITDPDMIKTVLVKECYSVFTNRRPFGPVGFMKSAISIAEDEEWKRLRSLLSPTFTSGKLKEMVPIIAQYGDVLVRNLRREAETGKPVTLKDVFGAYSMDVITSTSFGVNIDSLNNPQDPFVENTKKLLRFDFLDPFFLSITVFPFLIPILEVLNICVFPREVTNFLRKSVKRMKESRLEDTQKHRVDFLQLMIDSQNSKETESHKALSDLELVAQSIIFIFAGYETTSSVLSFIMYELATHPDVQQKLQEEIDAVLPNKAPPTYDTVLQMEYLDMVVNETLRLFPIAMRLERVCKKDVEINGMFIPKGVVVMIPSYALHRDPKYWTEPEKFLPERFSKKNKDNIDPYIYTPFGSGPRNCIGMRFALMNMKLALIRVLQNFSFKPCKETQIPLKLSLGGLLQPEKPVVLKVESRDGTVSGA

In the case of `O=C(O)CCC(=O)OCCC1CCN(c2nc3ccc(Cl)cc3s2)CC1`, the fold change (FC) in data set [1] was 1.5; in data set [2], 2; in [3], 2.4; in data set [4], 8.6; in data set [5], 11.
Consider `Cc1ccc(OCCC2CCN(c3nc4ccc(Cl)cc4s3)CC2)cc1CC(=O)O`, for which the EC50 amounted to 980 nM in data set [6], 110 nM in [7] and 830 nM in data set [8].
Turning to `O=C(O)c1cccc(OCCC2CCN(c3nc4ccc(Cl)cc4s3)CC2)c1`, the fold change (FC) turned out to be 1.4 in data set [2] and 7.5 in data set [3].
Turning to `CCc1ccc(CC(=O)O)cc1OCCC1CCN(c2nc3ccc(Cl)cc3s2)CC1`, the EC50 turned out to be 680 nM in data set [6], 3600 nM in [9], 120 nM in [7] and 330 nM in data set [8].
The like results for `Cc1cc(CC(=O)O)cc(OCCC2CCN(c3nc4ccc(Cl)cc4s3)CC2)c1` were, in that order, 1070 nM, 955 nM, 92.9 nM and 151 nM.
With `CN(CCOc1ccc(CC2SC(=O)NC2=O)cc1)c1ccccn1` (stereo not drawn), the fold change (FC) in [3] worked out at 1.2.
Regarding `Cc1cc(SCc2sc(-c3ccc(C(F)(F)F)cc3)nc2C)ccc1OCC(=O)O` [GW501516], the Activity in data set [10] turned out to be 493 mg/dL; in data set [11], 82.4 mg/dL; in [12], 132.9%. Further, the fold change (FC) in data set [2] was 30.4; in data set [3], 3.1.
On to `O=C(O)CCC(=O)OCCN1CCN(c2nc3ccc(Cl)cc3s2)CC1`, for which the fold change (FC) was 1.5 in data set [1], 1.5 in data set [3], 3 in data set [4] and 2.8 in data set [5].
Take `Cc1ccc(CC(=O)O)cc1OCCC1CCN(c2nc3ccc(Cl)cc3s2)CC1`: the figures for the Ratio EC50 in [13] and in [20] were 33 and 38, respectively. In addition, the activity at 20 µM in [14] was 94%; in data set [16], > 99%; in data set [21], 92%; in data set [22] it was 58%. The concentration giving a half-maximal response (EC50) was 542 nM in data set [6], 637 nM in data set [9], 16.4 nM in data set [7] and 71.2 nM in [8]. Besides, the figures for the Activity in data set [10], in [11] and in [12] were 415 mg/dL, 63.9 mg/dL and 118%, respectively. Besides, the solubility kinetic in data set [15] turned out to be 21.8 µM (≈ 9.7 µg/mL). The clearance in [17] was 14.3 mL/min/kg. Besides, the remaining at 0.5 h in data set [18] was 101%; in data set [23], 96%. In addition, the half-life in [19] was 1.8 h.
On to `O=C(O)Cc1cccc(OCC2CCN(c3nc4ccc(Cl)cc4s3)CC2)c1`, for which the fold change (FC) in data set [2] came to 7; in data set [3], 2.5.
The like results for `O=C(O)CCc1cccc(OCCC2CCN(c3nc4ccc(Cl)cc4s3)CC2)c1` were, in that order, 2.2 and 1.5.
On to `O=C(O)Cc1cccc(OCCC2CCN(c3nc4ccc(Cl)cc4s3)CC2)c1`, for which the EC50 in data set [9] worked out at 2220 nM; in data set [7], 263 nM; in data set [8], 1060 nM.

Usually EC50 stands for the concentration that produces a half-maximal response. Low readings indicate a more potent agent, high ones a less potent agent. For orientation: clearance means the volume of plasma or blood freed of the substance per unit of time. The half-life is the time needed for the level to fall by half in the phase considered.
